The subject of the assay is Beet Armyworm (Spodoptera exigua). The assay is described as follows: Bioassay on Beet Armyworm (BAW), 128-well diet tray assay. It is filed as in vivo. Conditions: Table 3, Assays Results Part 1. How it is done: Certain molecules disclosed in this document were tested against BAW, CEW and CL using procedures described in the following examples. In the reporting of the results, the “BAW & CEW & CL Rating Table” was used (See Table Section).
Bioassays on BAW (Spodoptera exigua)
Bioassays on BAW were conducted using a 128-well diet tray assay. One to five second instar BAW larvae were placed in each well (3 mL) of the diet tray that had been previously filled with 1 mL of artificial diet to which 50 μg/cm^2 of the test compound (dissolved in 50 μL of 90:10 acetone-water mixture) had been applied (to each of eight wells) and then allowed to dry. Trays were covered with a clear self-adhesive cover, and held at 25° C., 14:10 light-dark for five to seven days. Percent mortality was recorded for the larvae in each well; activity in the eight wells was then averaged. The results are indicated in the tables entitled “Table 3: Assay Results Part 1” and “Table 4: Assay Results Part 2” (See Table Section).

The results in this text go back to US9226500B2, “Pesticidal compositions and processes related thereto” (Dow AgroSciences LLC, priority 2012, dated 2016).

Regarding `O=C(NC1CS(=O)(=O)C1)c1ccc(/C=C/C(c2cc(Cl)cc(Cl)c2)C(F)(F)F)cc1F` (stereo not shown) [AC83, (E)-4-(3-(3,5-Dichlorophenyl)-4,4,4-trifluorobut-1-en-1-yl)-N-(1,1-dioxidothietan-3-yl)-2-fluorobenzamide], the “BAW Rating” value is on record as “A (50-100)”.

For `O=C(NC1CS(=O)(=O)C1)c1ccc(/C=C/C(c2cc(Cl)c(F)c(Cl)c2)C(F)(F)F)cc1F` (stereo not shown) [AC84], the “BAW Rating” value is listed as “A (50-100)”.

In the case of `COc1cc(/C=C/C(c2cc(Cl)c(F)c(Cl)c2)C(F)(F)F)ccc1C(=O)NC1CS(=O)(=O)C1` (stereo not shown) [AC85], the “BAW Rating” value is “A (50-100)”. Take `CCc1cc(/C=C/C(c2cc(Cl)c(F)c(Cl)c2)C(F)(F)F)ccc1C(=O)NC1CS(=O)(=O)C1` (stereo not shown) [AC86]: the “BAW Rating” value is recorded as “A (50-100)”. With `O=C(NC1C[S+]([O-])C1)c1ccc(/C=C/C(c2cc(Cl)c(F)c(Cl)c2)C(F)(F)F)cc1F` (stereo not shown) [AC87], the “BAW Rating” value is given as “A (50-100)”. As for `Cc1cc(/C=C/C(c2cc(Cl)cc(Cl)c2)C(F)(F)F)ccc1C(=O)NCc1nnc(C2CC2)o1` (stereo not shown) [AC89, (E)-N-((5-Cyclopropyl-1,3,4-oxadiazol-2-yl)methyl)-4-(3-(3,5-dichlorophenyl)-4,4,4-trifluorobut-1-en-1-yl)-2-methylbenzamide], the “BAW Rating” value is given as “A (50-100)”. With `FC(F)(F)CNC(=S)CNC(=S)c1ccc(/C=C/C(c2cc(Cl)c(Cl)c(Cl)c2)C(F)(F)F)cc1Br` (stereo not shown) [AC90, (E)-2-Bromo-N-(2-thioxo-2-((2,2,2-trifluoroethyl)amino)ethyl)-4-(4,4,4-trifluoro-3-(3,4,5-trichlorophenyl)but-1-en-1-yl)benzothioamide], the “BAW Rating” value is given as “A (50-100)”. In the case of `O=C(CNC(=S)c1ccc(/C=C/C(c2cc(Cl)c(Cl)c(Cl)c2)C(F)(F)F)cc1Br)NCC(F)(F)F` (stereo not shown) [AC91, (E)-2-(2-Bromo-4-(4,4,4-trifluoro-3-(3,4,5-trichlorophenyl)but-1-en-1-yl)phenylthioamido)-N-(2,2,2-trifluoroethyl)acetamide], the “BAW Rating” value was “A (50-100)”. As for `Cc1cc(/C=C\C(c2cc(Cl)cc(Cl)c2)C(F)(F)F)ccc1C(=O)NCC(=O)NC1CC1` (stereo not shown) [AC93], the “BAW Rating” value is reported as “A (50-100)”. For `O=C(CNC(=O)c1ccc(/C=C\C(c2cc(Cl)c(Cl)c(Cl)c2)C(F)(F)F)cc1Br)NCC(F)(F)F` (stereo not shown) [AC95, (Z)-2-Bromo-N-(2-oxo-2-((2,2,2-trifluoroethyl)amino)ethyl)-4-(4,4,4-trifluoro-3-(3,4,5-trichlorophenyl)but-1-en-1-yl)benzamide], the “BAW Rating” value was “A (50-100)”. In the case of `O=C(CNC(=O)c1ccc(/C=C/C(c2cc(Cl)c(F)c(Cl)c2)C(F)(F)F)cc1[N+](=O)[O-])NCC(F)(F)F` (stereo not shown) [AC98] it was “A (50-100)”; in that of `O=C(CNC(=O)c1ccc(/C=C/C(c2ccc(F)c(Cl)c2)C(F)(F)F)cc1Br)NCC(F)(F)F` (stereo not shown) [AC99], “A (50-100)”; in that of `CC(=O)N1CCC(NC(=O)c2ccc(/C=C/C(c3cc(Cl)c(Cl)c(Cl)c3)C(F)(F)F)cc2Br)CC1` (stereo not shown) [AC103, (E)-N-(1-Acetylpiperidin-4-yl)-2-bromo-4-(4,4,4-trifluoro-3-(3,4,5-trichlorophenyl)but-1-en-1-yl)benzamide], “A (50-100)”. In the case of `O=C(NC1CCN(C(=O)CC(F)(F)F)CC1)c1ccc(/C=C/C(c2cc(Cl)c(Cl)c(Cl)c2)C(F)(F)F)cc1Br` (stereo not shown) [AC104, (E)-2-Bromo-4-(4,4,4-trifluoro-3-(3,4,5-trichlorophenyl)but-1-en-1-yl)-N-(1-(3,3,3-trifluoropropanoyl)piperidin-4-yl)benzamide], the “BAW Rating” value was “A (50-100)”. On to `CN1CCC(NC(=O)c2ccc(/C=C/C(c3cc(Cl)c(Cl)c(Cl)c3)C(F)(F)F)cc2Br)CC1` (stereo not shown) [AC106, (E)-2-Bromo-N-(1-methylpiperidin-4-yl)-4-(4,4,4-trifluoro-3-(3,4,5-trichlorophenyl)but-1-en-1-yl)benzamide], for which the “BAW Rating” value is “A (50-100)”.

As for `N#CCN1CCC(NC(=O)c2ccc(/C=C/C(c3cc(Cl)c(Cl)c(Cl)c3)C(F)(F)F)cc2Br)CC1` (stereo not shown) [AC107], the “BAW Rating” value was “B (More than 0-Less than 50)”.
